Each structure is given as a SMILES string.

The subject of this test is recombinant NL4-3 virus. The test is described as follows: HIV cell culture assay. The format is cell-based. As to conditions: Human immunodeficiency virus 1, NL43, MT2. As for the experimental part: HIV cell culture assay—MT-2 cells and 293T cells were obtained from the NIH AIDS Research and Reference Reagent Program. MT-2 cells were propagated in RPMI 1640 media supplemented with 10% heat inactivated fetal bovine serum, 100 […]. The 293T cells were propagated in DMEM media supplemented with 10% heat inactivated fetal bovine serum (FBS), 100 units/ml penicillin G and 100 μg/ml streptomycin. The proviral DNA clone of NL4-3 was obtained from the NIH AIDS Research and Reference Reagent Program. A recombinant NL4-3 virus, in which a section of the nef gene from NL4-3 was replaced with the Renilla luciferase gene, was used as a reference virus. In addition, residue Gag P373 was converted to P373S. Briefly, the recombinant virus was prepared by transfection of the altered proviral clone of NL4-3. Transfections were performed in 293T cells using LipofectAMINE PLUS from Invitrogen (Carlsbad, Calif.), according to manufacturer's instruction. The virus was titered in MT-2 cells using luciferase enzyme activity as a marker. Luciferase was quantitated using the Dual Luciferase kit from Promega (Madison, Wis.), with modifications to the manufacturer's protocol. The diluted Passive Lysis solution was pre-mixed with the re-suspended Luciferase Assay Reagent and the re-suspended Stop & Glo Substrate (2:1:1 ratio). Fifty (50) μL of the mixture was added to each aspirated well on assay plates and luciferase activity was measured immediately on a Wallac TriLux (Perkin-Elmer). Antiviral activities of inhibitors toward the recombinant virus were quantified by measuring luciferase activity in cells infected for 4-5 days with NLRluc recombinants in the presence serial dilutions of the inhibitor.
In general, EC50 refers to the concentration that produces a half-maximal response. With `C=C(C)[C@@H]1CC[C@]2(CO)CC[C@]3(C)[C@H](CC[C@@H]4[C@@]5(C)CCN(C(=O)CCCC(=O)O)C(C)(C)C5CC[C@]43C)[C@@H]12` (stereo partly drawn) [Example 8, 5-((6aR,6bR,8aS,11R,11aR,11bR,13aR,13bR)-8a-(hydroxymethyl)-4,4,6a,6b,13b-pentamethyl-11-(prop-1-en-2-yl)icosahydro-3H-cyclopenta[5,6]naphtho[2,1-f]isoquinolin-3-yl)-5-oxopentanoic acid], the concentration for a half-maximal effect (EC50) was determined as 1810 nM.

`C=C(C)[C@@H]1CC[C@]2(CNCCCN3CCS(=O)(=O)CC3)CC[C@]3(C)[C@H](CC[C@@H]4[C@@]5(C)CCN(C/C=C/C(=O)O)C(C)(C)[C@@H]5CC[C@]43C)[C@@H]12` [Example 34, (E)-4-((4aR,6aR,6bR,8aS,11R,11aR,11bR,13aR,13bR)-8a-(((3-(1,1-dioxidothiomorpholino)propyl)amino)methyl)-4,4,6a,6b,13b-pentamethyl-11-(prop-1-en-2-yl)hexadecahydro-1H-cyclopenta[5,6]naphtho[2,1-f]isoquinolin-3(2H,4H,13bH)-yl)but-2-enoic acid]: the half-maximal effective concentration (EC50) is over 3000 nM.

`C=C(C)[C@@H]1CC[C@]2(CO)CC[C@]3(C)[C@H](CC[C@@H]4[C@@]5(C)CCCN(S(=O)(=O)c6ccc(C)c(C(=O)O)c6)C(C)(C)C5CC[C@]43C)[C@@H]12` (stereo partly drawn) [Example 16, 5-(((7aR,7bR,9aS,12R,12aR,12bR,14aR,14bR)-9a-(hydroxymethyl)-5,5,7a,7b,14b-pentamethyl-12-(prop-1-en-2-yl)icosahydrocyclopenta[7,8]phenanthro[2,1-c]azepin-4(1H)-yl)sulfonyl)-2-methylbenzoic acid]: the EC50 was over 8000 nM.

Consider `C=C(C)[C@@H]1CC[C@]2(CNCCCN3CCS(=O)(=O)CC3)CC[C@]3(C)[C@H](CC[C@@H]4[C@@]5(C)CCN(C(=O)CCC(C)(C)C(=O)O)C(C)(C)[C@@H]5CC[C@]43C)[C@@H]12` [Example 25, 5-((4aR,6aR,6bR,8aS,11R,11aR,11bR,13aR,13bR)-8a-(((3-(1,1-dioxidothiomorpholino)propyl)amino)methyl)-4,4,6a,6b,13b-pentamethyl-11-(prop-1-en-2-yl)hexadecahydro-1H-cyclopenta[5,6]naphtho[2,1-f]isoquinolin-3(2H,4H,13bH)-yl)-2,2-dimethyl-5-oxopentanoic acid], for which the EC50 worked out at 120 nM.

Consider `C=C(C)[C@@H]1CC[C@]2(CNCCCN3CCS(=O)(=O)CC3)CC[C@]3(C)[C@H](CC[C@@H]4[C@@]5(C)CCN(C(=O)Cc6cccc(CC(=O)O)c6)C(C)(C)[C@@H]5CC[C@]43C)[C@@H]12` [Example 27, 2-(3-(2-((4aR,6aR,6bR,8aS,11R,11aR,11bR,13aR,13bR)-8a-(((3-(1,1-dioxidothiomorpholino)propyl)amino)methyl)-4,4,6a,6b,13b-pentamethyl-11-(prop-1-en-2-yl)hexadecahydro-1H-cyclopenta[5,6]naphtho[2,1-f]isoquinolin-3(2H,4H,13bH)-yl)-2-oxoethyl)phenyl)acetic acid], for which the EC50 worked out at 300 nM.

As to `C=C(C)[C@@H]1CC[C@]2(CO)CC[C@]3(C)[C@H](CC[C@@H]4[C@@]5(C)CCN(C(=O)CC(=O)O)C(C)(C)C5CC[C@]43C)[C@@H]12` (stereo partly drawn) [Example 7, 3-((6aR,6bR,8aS,11R,11aR,11bR,13aR,13bR)-8a-(hydroxymethyl)-4,4,6a,6b,13b-pentamethyl-11-(prop-1-en-2-yl)icosahydro-3H-cyclopenta[5,6]naphtho[2,1-f]isoquinolin-3-yl)-3-oxopropanoic acid], the EC50 is 480 nM.

As for `C=C(C)[C@@H]1CC[C@]2(CO)CC[C@]3(C)[C@H](CC[C@@H]4[C@@]5(C)CCN(S(=O)(=O)c6ccc(/C=C/C(=O)O)cc6)C(C)(C)C5CC[C@]43C)[C@@H]12` (stereo partly drawn) [Example 18, (E)-3-(4-(((6aR,6bR,8aS,11R,11aR,11bR,13aR,13bR)-8a-(hydroxymethyl)-4,4,6a,6b,13b-pentamethyl-11-(prop-1-en-2-yl)icosahydro-3H-cyclopenta[5,6]naphtho[2,1-f]isoquinolin-3-yl)sulfonyl)phenyl)acrylic acid], the concentration giving a half-maximal response (EC50) was determined as 4200 nM.

`C=C(C)[C@@H]1CC[C@]2(CO)CC[C@]3(C)[C@H](CC[C@@H]4[C@@]5(C)CCN(S(=O)(=O)c6ccc(C(=O)O)cc6)C(C)(C)C5CC[C@]43C)[C@@H]12` (stereo partly drawn) [Example 20, 4-(((6aR,6bR,8aS,11R,11aR,11bR,13aR,13bR)-8a-(hydroxymethyl)-4,4,6a,6b,13b-pentamethyl-11-(prop-1-en-2-yl)icosahydro-3H-cyclopenta[5,6]naphtho[2,1-f]isoquinolin-3-yl)sulfonyl)benzoic acid]: the EC50 came out at 3100 nM.

With `C=C(C)[C@@H]1CC[C@]2(CNCCCN3CCS(=O)(=O)CC3)CC[C@]3(C)[C@H](CC[C@@H]4[C@@]5(C)CCN(c6ccc(N)cc6)C(C)(C)[C@@H]5CC[C@]43C)[C@@H]12` [Example 47, 4-(3-((((4aR,6aR,6bR,8aS,11R,11aR,11bR,13aR,13bR)-3-(4-aminophenyl)-4,4,6a,6b,13b-pentamethyl-11-(prop-1-en-2-yl)icosahydro-1H-cyclopenta[5,6]naphtho[2,1-f]isoquinolin-8a-yl)methyl)amino)propyl)thiomorpholine 1,1-dioxide], the EC50 is over 330 nM.

For the compound `C=C(C)[C@@H]1CC[C@]2(CNCCCN3CCS(=O)(=O)CC3)CC[C@]3(C)[C@H](CC[C@@H]4[C@@]5(C)CCN(C(=O)CC(C)(C)C(=O)O)C(C)(C)[C@@H]5CC[C@]43C)[C@@H]12` [Example 23, 4-((4aR,6aR,6bR,8aS,11R,11aR,11bR,13aR,13bR)-8a-(((3-(1,1-dioxidothiomorpholino)propyl)amino)methyl)-4,4,6a,6b,13b-pentamethyl-11-(prop-1-en-2-yl)icosahydro-3H-cyclopenta[5,6]naphtho[2,1-f]isoquinolin-3-yl)-2,2-dimethyl-4-oxobutanoic acid], the half-maximal effective concentration (EC50) came to 390 nM.

On to `C=C(C)[C@@H]1CC[C@]2(CNCCCN3CCS(=O)(=O)CC3)CC[C@]3(C)[C@H](CC[C@@H]4[C@@]5(C)CCN(C(=O)C(=O)NC6(C(=O)O)CC6)C(C)(C)[C@@H]5CC[C@]43C)[C@@H]12` [Example 39, 1-(2-((4aR,6aR,6bR,8aS,11R,11aR,11bR,13aR,13bR)-8a-(((3-(1,1-dioxidothiomorpholino)propyl)amino)methyl)-4,4,6a,6b,13b-pentamethyl-11-(prop-1-en-2-yl)hexadecahydro-1H-cyclopenta[5,6]naphtho[2,1-f]isoquinolin-3(2H,4H,13bH)-yl)-2-oxoacetamido)cyclopropanecarboxylic acid], for which the EC50 was over 3000 nM.

Regarding `C=C(C)[C@@H]1CC[C@]2(CNCCCN3CCS(=O)(=O)CC3)CC[C@]3(C)[C@H](CC[C@@H]4[C@@]5(C)CCN(c6ccc(C(=O)O)nn6)C(C)(C)[C@@H]5CC[C@]43C)[C@@H]12` [Example 54, 6-((4aR,6aR,6bR,8aS,11R,11aR,11bR,13aR,13bR)-8a-(((3-(1,1-dioxidothiomorpholino)propyl)amino)methyl)-4,4,6a,6b,13b-pentamethyl-11-(prop-1-en-2-yl)hexadecahydro-1H-cyclopenta[5,6]naphtho[2,1-f]isoquinolin-3(2H,4H,13bH)-yl)pyridazine-3-carboxylic acid], the EC50 came out at 280 nM.

Source of the values: patent publication US20190307776A1, “AZA-S[…] HUMAN IMMUNODEFICIENCY VIRUS REPLICATION” (priority 2016, published 2019).
